Consider ten compounds from the OPERA property sets (Mansouri et al. 2018).

By logP is commonly meant the decadic logarithm of the partition coefficient of the neutral form, usually between octanol and water.

As for `Cc1cc2ccccc2s1`, the logP was 3.71.
To `c1cc2ccc3cccc4sc(c1)c2c34` belongs 4.95.
Then `O=S1C=Cc2ccccc21` (stereo not given), with 1.01.
`c1ccc2c(c1)ccc1c3ccsc3ccc21` yielded a log partition coefficient (logP) of 5.35.
`c1ccc2c(c1)ccc1sc3ccccc3c12` showed a logP of 5.19.
Consider `c1ccc2c(c1)ccc1ccsc12`, for which the logP amounted to 4.55.
To `Cc1cccc2sccc12` belongs 3.57.
For the compound `Cc1cccc2ccsc12`, the logP came to 3.85.
To `c1ccc2cc3sccc3cc2c1` belongs 4.5.
`c1ccc2c(c1)ccc1sccc12` displayed a logP of 4.41.
